Measurements as given in ChEMBL document CHEMBL1201862, “PubChem BioAssay data set” (2004).
Activity calls are given as the source filed them.

How the values were obtained:
Aminopeptidase N = target: T1, Aminopeptidase N (Plasmodium falciparum FcB1/Columbia, UniProt O96935); assay: malaria alanyl aminopeptidase activity blockers – biochemical, fluorogenic H-Leu-NHMec substrate, 1536-well (AID 1445); parameters: species or system Plasmodium falciparum 3D7, 3D7
T1 sequence (O96935 whole entry): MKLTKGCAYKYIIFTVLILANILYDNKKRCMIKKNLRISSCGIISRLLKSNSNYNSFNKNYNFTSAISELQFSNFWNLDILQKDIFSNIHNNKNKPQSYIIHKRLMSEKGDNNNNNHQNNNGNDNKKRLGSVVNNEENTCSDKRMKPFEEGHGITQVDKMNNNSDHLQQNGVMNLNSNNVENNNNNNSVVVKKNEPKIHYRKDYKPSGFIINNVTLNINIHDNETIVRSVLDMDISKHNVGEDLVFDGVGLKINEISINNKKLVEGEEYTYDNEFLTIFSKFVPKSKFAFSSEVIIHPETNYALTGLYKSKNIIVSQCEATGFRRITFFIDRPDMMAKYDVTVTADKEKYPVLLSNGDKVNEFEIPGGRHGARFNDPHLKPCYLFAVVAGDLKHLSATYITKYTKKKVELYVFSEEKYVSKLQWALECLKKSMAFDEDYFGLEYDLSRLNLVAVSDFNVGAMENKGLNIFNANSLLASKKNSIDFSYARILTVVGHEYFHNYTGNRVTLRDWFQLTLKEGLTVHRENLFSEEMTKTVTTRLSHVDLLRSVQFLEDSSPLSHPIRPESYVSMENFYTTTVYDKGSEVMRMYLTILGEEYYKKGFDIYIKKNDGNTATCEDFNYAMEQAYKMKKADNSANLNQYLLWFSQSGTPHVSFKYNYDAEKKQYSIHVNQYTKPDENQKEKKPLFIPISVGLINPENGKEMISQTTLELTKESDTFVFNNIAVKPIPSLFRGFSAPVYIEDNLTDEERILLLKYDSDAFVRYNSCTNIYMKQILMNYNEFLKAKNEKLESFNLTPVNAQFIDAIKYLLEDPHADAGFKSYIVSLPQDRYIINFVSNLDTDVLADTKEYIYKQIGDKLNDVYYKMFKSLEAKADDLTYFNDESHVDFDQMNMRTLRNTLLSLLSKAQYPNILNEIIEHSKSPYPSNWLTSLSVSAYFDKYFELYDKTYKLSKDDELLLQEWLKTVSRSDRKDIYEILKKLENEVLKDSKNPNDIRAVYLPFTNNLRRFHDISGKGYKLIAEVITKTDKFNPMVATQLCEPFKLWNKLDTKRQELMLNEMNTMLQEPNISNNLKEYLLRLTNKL

[1] = target: T2, RNA-binding protein pos-1 (Caenorhabditis elegans, UniProt G5EF15); assay: disruptors of C. elegans POS-1 RNA interaction – biochemical, fluorescence polarization, dose response (AID 1964);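 note: purified POS-1 fused to maltose binding protein made in E. coli; potency of compounds blocking POS-1 binding to fluorescent RNA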
T2 sequence (G5EF15 whole entry): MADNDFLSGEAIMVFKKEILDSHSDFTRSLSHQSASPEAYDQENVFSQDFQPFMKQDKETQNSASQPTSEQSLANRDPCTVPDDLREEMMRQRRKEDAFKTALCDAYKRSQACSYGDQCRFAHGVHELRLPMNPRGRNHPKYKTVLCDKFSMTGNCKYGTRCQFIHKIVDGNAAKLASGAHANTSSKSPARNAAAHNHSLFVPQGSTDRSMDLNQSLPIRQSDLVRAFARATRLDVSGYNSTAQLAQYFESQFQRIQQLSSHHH

[2] = system: Streptococcus sp. 'group A'; assay: Streptococcus pyogenes SK(-)GAS viability under kanamycin – luminescence, BacTiterGlo, confirmation, counter-screen for streptokinase expression inhibitor project, dose response (AID 1900); format: functional, organism-based
[3] = target: T3, Zinc finger protein mex-5 (Caenorhabditis elegans, UniProt Q9XUB2); assay: potency of MEX-5 RNA-binding blockers – biochemical, C. elegans, fluorescence polarization, dose response (AID 1960)
T3 sequence (Q9XUB2 whole entry): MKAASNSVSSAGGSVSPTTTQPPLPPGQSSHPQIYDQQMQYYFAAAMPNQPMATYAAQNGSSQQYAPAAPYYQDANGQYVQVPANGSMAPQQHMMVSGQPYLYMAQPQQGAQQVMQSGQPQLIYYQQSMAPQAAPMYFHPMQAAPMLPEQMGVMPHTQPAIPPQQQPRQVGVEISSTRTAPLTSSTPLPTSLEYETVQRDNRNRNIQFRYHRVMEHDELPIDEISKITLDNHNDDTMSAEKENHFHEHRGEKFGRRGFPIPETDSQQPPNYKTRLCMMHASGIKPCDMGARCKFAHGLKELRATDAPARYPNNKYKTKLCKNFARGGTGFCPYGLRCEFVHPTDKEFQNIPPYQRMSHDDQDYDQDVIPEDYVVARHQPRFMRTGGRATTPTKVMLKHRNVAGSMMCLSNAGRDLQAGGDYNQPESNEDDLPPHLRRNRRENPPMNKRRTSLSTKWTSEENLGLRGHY

[4] = CCR5-tropic HIV-1 fusion blockers – cell-based, CCR5-tropic Env, dose response (AID 2279); format: functional
[5] = target: Induced myeloid leukemia cell differentiation protein Mcl-1 (Homo sapiens, UniProt Q07820); format: functional
Chain of Induced myeloid leukemia cell differentiation protein Mcl-1 (Q07820 whole entry): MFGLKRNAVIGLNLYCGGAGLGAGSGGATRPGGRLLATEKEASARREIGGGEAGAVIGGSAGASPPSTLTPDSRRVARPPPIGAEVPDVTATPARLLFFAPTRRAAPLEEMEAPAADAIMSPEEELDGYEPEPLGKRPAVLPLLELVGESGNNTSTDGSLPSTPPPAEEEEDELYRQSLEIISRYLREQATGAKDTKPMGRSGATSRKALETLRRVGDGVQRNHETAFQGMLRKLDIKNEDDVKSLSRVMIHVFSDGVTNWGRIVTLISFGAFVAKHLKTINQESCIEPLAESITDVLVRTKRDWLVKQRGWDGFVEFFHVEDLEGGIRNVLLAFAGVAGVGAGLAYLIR

Streptococcus = assay: GAS UMAA2166 growth inhibition – luminescence, BacTiterGlo, counter-screen for streptokinase expression inhibitor project, dose response (AID 1915); format: functional, organism-based;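 note: potency for reduction of bacterial viability or growth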
[6] = target: Eukaryotic translation initiation factor 4H (Homo sapiens, UniProt Q15056); assay: inhibitors of translation initiation factor eIF4H – SAR follow-up (AID 435011); format: functional
[7] = target: Polyadenylate-binding protein 1 (Homo sapiens, UniProt P11940); assay: PABP inhibition in translation initiation, SAR follow-up (AID 435018); format: functional
Chain of Polyadenylate-binding protein 1 (P11940 whole entry): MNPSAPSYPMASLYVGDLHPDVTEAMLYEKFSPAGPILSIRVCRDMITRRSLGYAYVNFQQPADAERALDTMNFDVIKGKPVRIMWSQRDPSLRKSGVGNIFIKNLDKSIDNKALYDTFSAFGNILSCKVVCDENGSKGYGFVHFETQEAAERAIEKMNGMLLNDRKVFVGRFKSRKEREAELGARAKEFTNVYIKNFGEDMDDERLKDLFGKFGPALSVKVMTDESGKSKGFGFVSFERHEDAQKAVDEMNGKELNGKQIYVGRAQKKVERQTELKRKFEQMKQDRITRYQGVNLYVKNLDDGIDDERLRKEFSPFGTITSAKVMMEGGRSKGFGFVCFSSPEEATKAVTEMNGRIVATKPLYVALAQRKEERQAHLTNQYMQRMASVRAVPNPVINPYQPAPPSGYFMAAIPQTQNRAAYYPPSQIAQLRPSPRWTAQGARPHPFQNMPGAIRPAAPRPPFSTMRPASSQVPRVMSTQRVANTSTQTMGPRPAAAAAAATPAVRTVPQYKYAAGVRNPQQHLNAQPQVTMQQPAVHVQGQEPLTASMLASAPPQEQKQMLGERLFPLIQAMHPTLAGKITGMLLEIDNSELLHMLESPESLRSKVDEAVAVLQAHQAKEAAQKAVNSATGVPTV

[8] = luciferase reporter signal suppression in cells – H4 neuroglioma cells, luminescence, dose response (AID 1990); format: functional, cell-based
[9] = luciferase reporter signal reduction – luminescence, H4-C neuroglioblastoma cells, dose response (AID 2458); format: functional, cell-based;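 note: H4 neuroglioblastoma cells stably carrying a luciferase reporter gene fusion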
cells [10] = format: functional, cell-based
[11] = Luminescence Cell-Based Dose Response HTS to Identify Inhibitors of 5'UTR Stem-Loop Driven Prion Protein mRNA Translation in H4 Neuroglioblastoma Cells. [Related pubchem assays: 1827 (Project Summary), 1813 (Primary HTS)]; format: functional
[12] = alpha-synuclein stem-loop luciferase translation blockers – H4 neuroglioma cells, luminescence, confirmation (AID 1988); format: functional, cell-based
[13] = Trypanosoma cruzi growth suppression in host cells – NIH3T3 host cells, beta-gal luminescence, confirmation (AID 2044); format: functional, cell-based;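 note: intracellular parasites grown in NIH/3T3 mouse fibroblasts as host cells; luminescent beta-galactosidase reporter signal from transgenic T. cruzi replicating inside host cells; inhibitors lower the luminescence signal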
[14] = NIH3T3 cell viability loss – ATP luminescence, mouse fibroblasts, counter-screen, dose response (AID 2010); format: functional, cell-based;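 note: cells exposed to compound for about 90 hours before reading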
[15] = alpha-synuclein stem-loop translation blockers – luminescence, H4 neuroglioblastoma cells, dose confirmation, confirmation (AID 2454); format: functional, cell-based;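 note: H4 neuroglioblastoma cells carrying an alpha-synuclein 5'UTR luciferase reporter; potency for inhibition of the luciferase signal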
[16] = HEK-293T viability loss after treatment – luminescence, T-cell screen hits, cytotoxicity control for TCR NF-kB inhibitor project, dose response (AID 489026); format: functional, cell-based;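 note: cells exposed to compound about 14 hours before the viability readout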
NS3 = NS3 (Hepatitis C virus, UniProt A3EZJ3); assay: PubChem AID 2173; parameters: species or system Hepacivirus hominis
Chain of NS3 (A3EZJ3 whole entry): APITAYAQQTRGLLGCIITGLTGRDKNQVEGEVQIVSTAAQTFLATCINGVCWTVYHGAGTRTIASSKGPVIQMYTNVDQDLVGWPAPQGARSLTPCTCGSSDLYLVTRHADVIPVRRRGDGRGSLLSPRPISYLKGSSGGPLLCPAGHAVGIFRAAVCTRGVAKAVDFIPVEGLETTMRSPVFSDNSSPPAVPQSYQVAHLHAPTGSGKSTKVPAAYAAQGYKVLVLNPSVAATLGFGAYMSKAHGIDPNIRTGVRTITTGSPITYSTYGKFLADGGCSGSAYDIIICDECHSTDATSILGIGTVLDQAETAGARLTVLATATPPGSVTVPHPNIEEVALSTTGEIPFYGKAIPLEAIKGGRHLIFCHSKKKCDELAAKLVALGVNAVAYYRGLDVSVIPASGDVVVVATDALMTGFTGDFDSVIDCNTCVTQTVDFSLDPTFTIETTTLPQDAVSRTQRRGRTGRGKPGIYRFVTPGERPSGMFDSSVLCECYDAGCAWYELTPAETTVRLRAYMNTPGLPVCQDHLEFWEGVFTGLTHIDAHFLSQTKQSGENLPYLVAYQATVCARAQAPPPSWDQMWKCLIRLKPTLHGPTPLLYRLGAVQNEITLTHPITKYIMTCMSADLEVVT

[17] = target: Neurotensin receptor type 1 (Homo sapiens, UniProt P30989); format: functional;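 note: Image-based confirmatory dose-response assay measuring agonist activity at NTR1; NTR1-expressing U2OS osteosarcoma cells imaged for beta-arrestin GFP spot formation; agonist potency where compounds increase beta-arrestin recruitment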
Chain of Neurotensin receptor type 1 (P30989 whole entry): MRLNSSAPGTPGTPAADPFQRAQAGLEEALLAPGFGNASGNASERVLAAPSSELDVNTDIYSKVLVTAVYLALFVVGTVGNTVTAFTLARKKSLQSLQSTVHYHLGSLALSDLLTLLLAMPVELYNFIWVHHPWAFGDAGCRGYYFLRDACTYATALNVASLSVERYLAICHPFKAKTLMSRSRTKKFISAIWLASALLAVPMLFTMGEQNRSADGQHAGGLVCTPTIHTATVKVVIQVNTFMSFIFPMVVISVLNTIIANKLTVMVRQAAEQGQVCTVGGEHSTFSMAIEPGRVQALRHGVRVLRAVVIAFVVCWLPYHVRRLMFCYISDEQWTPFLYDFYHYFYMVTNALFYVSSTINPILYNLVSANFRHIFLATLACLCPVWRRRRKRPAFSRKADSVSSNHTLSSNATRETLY

[18] = target: T4, Alkaline phosphatase, tissue-nonspecific isozyme (Homo sapiens, UniProt P05186)
T4 sequence (P05186 whole entry): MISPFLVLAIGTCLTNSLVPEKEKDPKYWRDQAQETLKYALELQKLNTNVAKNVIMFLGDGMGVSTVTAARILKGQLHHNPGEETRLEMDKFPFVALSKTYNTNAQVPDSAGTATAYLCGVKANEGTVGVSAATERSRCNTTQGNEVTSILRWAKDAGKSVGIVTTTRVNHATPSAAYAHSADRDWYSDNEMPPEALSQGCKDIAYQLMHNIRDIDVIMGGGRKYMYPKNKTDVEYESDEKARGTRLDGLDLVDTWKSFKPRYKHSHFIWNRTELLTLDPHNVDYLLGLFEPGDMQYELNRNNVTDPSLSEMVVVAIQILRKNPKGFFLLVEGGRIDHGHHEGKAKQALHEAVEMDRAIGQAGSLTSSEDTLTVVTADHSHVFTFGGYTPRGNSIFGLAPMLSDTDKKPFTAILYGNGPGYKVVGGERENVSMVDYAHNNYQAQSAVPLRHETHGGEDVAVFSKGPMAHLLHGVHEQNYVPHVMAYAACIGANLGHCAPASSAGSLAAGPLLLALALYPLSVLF

[19] = target: 1-acylglycerol-3-phosphate O-acyltransferase ABHD5/Perilipin-5 (Homo sapiens, UniProt Q00G26+Q8WTS1); assay: Luminescence-based biochemical high throughput dose response assay for inhibitors of the interaction of the lipase co-activator protein, abhydrolase domain containing 5 (ABHD5) with perilipin-5 (MLDP; PLIN5) (2K validation set). [Related pubchem assays (depositor defined):AID493035, AID493241]
Chain of 1-acylglycerol-3-phosphate O-acyltransferase ABHD5/Perilipin-5 (Q00G26 whole entry, the tested form may be a part): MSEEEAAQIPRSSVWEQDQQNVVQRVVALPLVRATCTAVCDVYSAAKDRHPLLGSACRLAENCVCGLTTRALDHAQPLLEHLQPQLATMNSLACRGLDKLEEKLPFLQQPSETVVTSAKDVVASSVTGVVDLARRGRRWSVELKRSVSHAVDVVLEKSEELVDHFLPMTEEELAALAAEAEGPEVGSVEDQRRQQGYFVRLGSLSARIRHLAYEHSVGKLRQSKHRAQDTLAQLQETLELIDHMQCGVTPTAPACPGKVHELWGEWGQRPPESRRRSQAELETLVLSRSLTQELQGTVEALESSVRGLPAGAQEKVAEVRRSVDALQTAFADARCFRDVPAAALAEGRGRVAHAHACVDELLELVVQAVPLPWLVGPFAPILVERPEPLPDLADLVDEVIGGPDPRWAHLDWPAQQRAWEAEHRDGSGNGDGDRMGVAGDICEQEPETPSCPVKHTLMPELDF
Chain of 1-acylglycerol-3-phosphate O-acyltransferase ABHD5/Perilipin-5 (Q8WTS1 whole entry, the tested form may be a part): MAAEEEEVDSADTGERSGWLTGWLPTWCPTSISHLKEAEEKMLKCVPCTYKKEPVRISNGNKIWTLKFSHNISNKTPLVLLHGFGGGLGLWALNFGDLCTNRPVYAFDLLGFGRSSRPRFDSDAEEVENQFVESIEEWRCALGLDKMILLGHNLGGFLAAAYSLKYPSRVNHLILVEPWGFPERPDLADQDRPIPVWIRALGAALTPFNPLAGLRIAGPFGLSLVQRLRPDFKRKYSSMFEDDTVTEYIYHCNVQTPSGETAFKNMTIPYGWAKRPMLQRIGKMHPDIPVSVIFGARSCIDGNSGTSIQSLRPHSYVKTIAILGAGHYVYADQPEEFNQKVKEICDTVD

Perilipin-1/ABHD5 = Perilipin-1/ABHD5 (Homo sapiens, UniProt O60240+Q8WTS1); assay: Luminescence-based biochemical high throughput dose response assay for inhibitors of the interaction of the lipase co-activator protein, abhydrolase domain containing 5 (ABHD5) with perilipin-1 (PLIN1) (2K validation set). [Related pubchem assays (depositor defined):AID493027, AID493057]
Chain of Perilipin-1/ABHD5 (Q8WTS1 whole entry, the tested form may be a part): as above
Chain of Perilipin-1/ABHD5 (O60240 whole entry, the tested form may be a part): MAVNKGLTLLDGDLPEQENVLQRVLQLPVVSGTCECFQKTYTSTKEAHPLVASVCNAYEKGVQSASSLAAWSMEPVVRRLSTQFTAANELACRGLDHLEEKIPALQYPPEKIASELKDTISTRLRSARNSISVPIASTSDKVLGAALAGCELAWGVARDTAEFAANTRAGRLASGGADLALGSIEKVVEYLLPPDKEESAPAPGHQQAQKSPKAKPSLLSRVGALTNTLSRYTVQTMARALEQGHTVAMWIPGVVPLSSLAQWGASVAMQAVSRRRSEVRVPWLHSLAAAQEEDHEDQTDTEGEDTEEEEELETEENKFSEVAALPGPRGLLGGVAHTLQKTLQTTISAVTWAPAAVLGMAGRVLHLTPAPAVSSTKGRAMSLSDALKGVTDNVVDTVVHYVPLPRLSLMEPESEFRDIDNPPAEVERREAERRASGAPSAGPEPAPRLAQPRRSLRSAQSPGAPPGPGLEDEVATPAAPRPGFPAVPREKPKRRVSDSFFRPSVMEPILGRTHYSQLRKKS

[20] = target: T5, Long-chain-fatty-acid--AMP ligase FadD28 (Mycobacterium tuberculosis, UniProt P9WQ59); assay: Fluorescence polarization aasay to screen for inhibitors that compete for the binding of FadD28 to a bisubstrate Measured in Biochemical System Using Plate Reader - 2147-01_Inhibitor_Dose_CherryPick_Activity.; format: functional, Mycobacterium tuberculosis H37Rv
T5 sequence (P9WQ59 whole entry): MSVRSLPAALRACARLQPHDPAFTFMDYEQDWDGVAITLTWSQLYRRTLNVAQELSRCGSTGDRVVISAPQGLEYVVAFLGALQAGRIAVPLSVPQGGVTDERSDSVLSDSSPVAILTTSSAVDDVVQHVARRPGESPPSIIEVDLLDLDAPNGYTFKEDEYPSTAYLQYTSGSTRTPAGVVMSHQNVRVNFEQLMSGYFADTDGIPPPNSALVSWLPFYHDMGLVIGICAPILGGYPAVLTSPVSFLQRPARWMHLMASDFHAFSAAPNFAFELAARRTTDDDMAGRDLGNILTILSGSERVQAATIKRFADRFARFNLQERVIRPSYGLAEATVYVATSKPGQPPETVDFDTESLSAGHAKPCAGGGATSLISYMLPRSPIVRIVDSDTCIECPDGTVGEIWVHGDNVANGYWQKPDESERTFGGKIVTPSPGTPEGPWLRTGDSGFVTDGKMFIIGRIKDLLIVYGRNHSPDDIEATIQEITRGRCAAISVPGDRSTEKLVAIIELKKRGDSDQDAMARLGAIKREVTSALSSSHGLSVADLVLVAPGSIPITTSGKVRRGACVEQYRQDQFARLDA

cells [21] = assay: cells

O=c1cc(-c2ccccc2Cl)oc2c(NS(=O)(=O)c3cc(Cl)cc(Cl)c3O)ccc(O)c12
IC50 (Aminopeptidase N): 51.6 µM (active) | EC50 [1]: > 300 µM (not active) | EC50 [2]: 1 µM (active) | EC50 [3]: 4.54 µM (inconclusive) | IC50 [4]: 4.77 µM (active) | IC50 [5]: 3.4 µM (active) | EC50 (Streptococcus): 2.26 µM (active)

Cc1ccccc1NC(=O)C1CCN(C(=O)c2cccs2)CC1
IC50 [6]: > 100 µM (inactive) | IC50 [7]: > 100 µM (inactive)

CC(=O)O[C@@]12CO[C@@H]1C[C@H](O)[C@@]1(C)C(=O)[C@H](O)C3=C(C)[C@@H](OC(=O)[C@H](O)[C@@H](NC(=O)c4ccccc4)c4ccccc4)C[C@@](O)([C@@H](OC(=O)c4ccccc4)C12)C3(C)C (stereo partly specified)
EC50 [8]: 9.95 µM (active) | EC50 [9]: 1.21 µM (active) | EC50 (cells [10]): 1.78 µM (active) | EC50 [11]: > 120 µM (not active) | EC50 [12]: < 0.1 µM (active) | EC50 [13]: 0.132 µM (active) | EC50 [14]: 6.71 µM (active) | EC50 [15]: 1.16 µM (active) | IC50 [16]: > 80 µM (inactive)

COC(=O)c1sc(N2C(=O)C(O)=C(C(=O)c3ccc(C)o3)C2c2cc(OC)ccc2OC)nc1C (stereo unspecified)
IC50 (NS3): 5.66 µM (active)

COC(=O)c1ccc2c(=O)n(CCCCCC(=O)N3CCN(c4ccccc4)CC3)c(=O)[nH]c2c1
EC50 [17]: 17.6 µM (active)

Cc1cccc(-n2c(CNC(=O)c3cccc([N+](=O)[O-])c3C)n[nH]c2=S)c1
EC50 [18]: > 100 µM (not active)

COc1ccc2c(c1)C=CC1(O2)N(CCO)c2ccccc2C1(C)C (stereo unspecified)
IC50 [19]: 6.97 µM (active) | IC50 (Perilipin-1/ABHD5): 7.1 µM (active)

O=C(O)c1cc(-c2ccc(/C=C3\NC(=O)N(c4ccc(Cl)cc4)C3=O)o2)ccc1Cl
EC50 [1]: 39.7 µM (active) | AC50 [20]: 19.5 µM (active) | IC50 (cells [21]): 23.2 µM (active)
